Measured values published in US10821100B2, “Triazolone compounds as mPGES-1 inhibitors” (Glenmark Pharmaceuticals S.A., priority 2012, dated 2020).

Target: T1, Recombinant human mPGES-1 (Homo sapiens, UniProt O14684)
T1 construct: made in house; host or cells: CHO cells (crude microsomal fractions)
T1 sequence (O14684 1-152): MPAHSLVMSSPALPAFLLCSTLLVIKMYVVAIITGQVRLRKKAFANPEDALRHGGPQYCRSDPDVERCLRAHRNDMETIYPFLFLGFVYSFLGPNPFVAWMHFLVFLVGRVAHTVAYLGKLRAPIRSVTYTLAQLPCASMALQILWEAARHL
Assay: In-vitro screening of mPGES-1 inhibitors (inhibition of PGE2 formation from PGH2, HTRF detection)
Format: biochemical
Conditions: mPGES-1 enzyme; for inhibition at 1 µM: 1 μM test compound, read-out: Percentage inhibition at 1 μM; for inhibition at 1 µM / inhibition at 10 µM: crude microsomal fractions; for inhibition at 10 µM: 10 μM test compound, read-out: Percentage inhibition at 10 μM; for IC50: class symbols
In short: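 PGH2-to-PGE2 isomerization run for 1 min with 15 μM PGH2 after 10 min compound preincubation with microsomal enzyme (40–60 μg/mL) and 2.5 mM GSH, pH buffer 0.1 M potassium phosphate with EDTA. Stannous chloride quench, HTRF PGE2 readout, IC50 fitted against uninhibited reaction.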

Cc1ccc(CNC(=O)C(C)C)c(C)c1-c1nn(-c2ccc(C#CC(C)(C)C)cc2)c(=O)[nH]1 [Example-164, N-(3-(4,5-Dihydro-1-(4-(3,3-dimethylbut-1-ynyl)phenyl)-5-oxo-1H-1,2,4-triazol-3-yl)-2,4-dimethylbenzyl)isobutyramide]
inhibition at 1 µM: 98.3% | inhibition at 10 µM: 97.2% | IC50: < 50 nM

Cc1ccc(CNC(=O)C(C)(C)C)c(C)c1-c1nn(-c2ccc(C#CC3CC3)cc2)c(=O)[nH]1 [Example-165, N-(3-(1-(4-(2-Cyclopropylethynyl)phenyl)-4,5-dihydro-5-oxo-1H-1,2,4-triazol-3-yl)-2,4-dimethylbenzyl)pivalamide]
inhibition at 1 µM: 97.9% | inhibition at 10 µM: 99.5% | IC50: < 50 nM

CC(C)(C)C(=O)NCc1ccc(Cl)c(-n2nc(-c3ccc(C#CC4CC4)c(F)c3)[nH]c2=O)c1 [Example-166, N-(4-Chloro-3-(3-(4-(2-cyclopropylethynyl)-3-fluorophenyl)-4,5-dihydro-5-oxo-1,2,4-triazol-1-yl)benzyl)pivalamide]
inhibition at 1 µM: 99.7% | inhibition at 10 µM: 100% | IC50: < 50 nM

CC(C)(C)C(=O)NCc1ccc(Cl)c(-c2nn(-c3ccc(C#CC4CC4)cc3)c(=O)[nH]2)c1 [Example-167, N-(4-Chloro-3-(1-(4-(2-cyclopropylethynyl)phenyl)-4,5-dihydro-5-oxo-1H-1,2,4-triazol-3-yl)benzyl)pivalamide]
inhibition at 1 µM: 99% | inhibition at 10 µM: 98.4% | IC50: < 50 nM

CC(C)(C)C(=O)NCc1ccc(Cl)c(-n2nc(-c3ccc(C#CC4CC4)cc3F)[nH]c2=O)c1 [Example-168, N-(4-Chloro-3-(3-(4-(2-cyclopropylethynyl)-2-fluorophenyl)-4,5-dihydro-5-oxo-1,2,4-triazol-1-yl)benzyl)pivalamide]
inhibition at 1 µM: 100% | inhibition at 10 µM: 98.9% | IC50: < 50 nM

Cc1ccc(CNC(=O)C(C)(C)CF)c(C)c1-c1nn(-c2ccc(C#CC3CC3)cc2)c(=O)[nH]1 [Example-169, N-(3-(1-(4-(2-Cyclopropylethynyl)phenyl)-4,5-dihydro-5-oxo-1H-1,2,4-triazol-3-yl)-2,4-dimethylbenzyl)-3-fluoro-2,2-dimethylpropanamide]
inhibition at 1 µM: 95.5% | inhibition at 10 µM: 99.2% | IC50: > 100 nM

Cc1ccc(CNC(=O)C(C)C)c(C)c1-c1nn(-c2ccc(C#CC(C)(C)C)c(F)c2)c(=O)[nH]1 [Example-170, N-(3-(1-(3-Fluoro-4-(3,3-dimethylbut-1-ynyl)phenyl)-4,5-dihydro-5-oxo-1H-1,2,4-triazol-3-yl)-2,4-dimethylbenzyl)isobutyramide]
inhibition at 1 µM: 99.8% | inhibition at 10 µM: 98.9% | IC50: < 50 nM

COc1cc(-c2nn(-c3c(Cl)cccc3Cl)c(=O)[nH]2)ccc1C#Cc1cc(Cl)ccc1Cl [Example-171, 2-(2,6-Dichlorophenyl)-5-(4-(2-(2,5-dichlorophenyl)ethynyl)-3-methoxyphenyl)-2H-1,2,4-triazol-3 (4H)-one]
inhibition at 1 µM: 95.2% | inhibition at 10 µM: 99.6% | IC50: < 50 nM

Cc1cc(C)n(Cc2ccc(-c3nn(-c4cc(CNC(=O)C(C)(C)C)ccc4Cl)c(=O)[nH]3)cc2)n1 [Example-172, N-(4-Chloro-3-(4,5-dihydro-3-(4-((3,5-dimethyl-1H-pyrazol-1-yl)methyl)phenyl)-5-oxo-1,2,4-triazol-1-yl)benzyl)pivalamide]
inhibition at 1 µM: 91.9% | inhibition at 10 µM: 99% | IC50: > 100 nM

CC(C)(C)C(=O)NCc1ccc(Cl)c(-c2nn(-c3ccc(C(F)(F)F)c(F)c3)c(=O)[nH]2)c1F [Example-173, N-(4-Chloro-2-fluoro-3-(1-(3-fluoro-4-(trifluoromethyl)phenyl)-4,5-dihydro-5-oxo-1H-1,2,4-triazol-3-yl)benzyl)pivalamide]
inhibition at 1 µM: 96.8% | inhibition at 10 µM: 99% | IC50: < 50 nM
